One experiment deals with α-glucosidase (Saccharomyces cerevisiae, UniProt P53341). The experiment is described as follows: α-glucosidase inhibition assay. Type of experiment: biochemical.
A further experiment concerns β-glucosidase. In words: β-glucosidase inhibition assay. Type of experiment: biochemical. To be noted: final concentration of 100 μM in every well; pH 6.8, 37 °C.

For orientation: IC50 means the concentration needed to halve the response being measured. Read a low IC50 as greater potency in that assay.

Sequence of α-glucosidase (P53341 whole entry): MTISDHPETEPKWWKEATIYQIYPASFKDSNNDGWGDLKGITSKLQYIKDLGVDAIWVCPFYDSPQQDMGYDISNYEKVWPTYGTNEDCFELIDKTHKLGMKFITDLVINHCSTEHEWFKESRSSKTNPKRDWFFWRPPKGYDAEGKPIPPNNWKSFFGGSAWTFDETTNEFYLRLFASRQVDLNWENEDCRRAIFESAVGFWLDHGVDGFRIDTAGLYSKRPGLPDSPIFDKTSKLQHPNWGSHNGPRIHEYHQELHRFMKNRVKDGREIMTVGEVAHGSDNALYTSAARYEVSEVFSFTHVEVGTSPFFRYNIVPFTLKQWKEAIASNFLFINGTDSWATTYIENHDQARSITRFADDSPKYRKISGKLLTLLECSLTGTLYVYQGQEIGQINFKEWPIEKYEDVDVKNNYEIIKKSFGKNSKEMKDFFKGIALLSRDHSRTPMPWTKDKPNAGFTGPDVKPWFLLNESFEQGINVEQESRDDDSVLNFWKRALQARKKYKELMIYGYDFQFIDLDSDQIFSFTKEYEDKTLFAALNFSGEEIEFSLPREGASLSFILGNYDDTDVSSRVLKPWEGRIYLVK

In turn, `COc1cc(C(=O)N=c2scc(-c3ccc(F)cc3)n2-c2ccc(F)c(Cl)c2)cc(OC)c1OC` [6a, N-(3-(3-Chloro-4-fluorophenyl)-4-(4-fluorophenyl)thiazol-2(3H)-ylidene)-3,4,5-trimethoxybenzamide] registered an IC50 against α-glucosidase of 18.2 ± 0.02 µM. Moreover, the “β-glucosidase % age inhibition” value in the experiment with β-glucosidase came to 11.2%.
`O=C(N=c1scc(-c2ccc(F)cc2)n1-c1ccccc1F)c1ccccc1Cl` [6b, 2-Chloro-N-(3-(2-fluorophenyl)-4-(4-fluorophenyl)thiazol-2(3H)-ylidene)benzamide] yielded an IC50 against α-glucosidase of 3.23 ± 0.07 µM. Further, the “β-glucosidase % age inhibition” value with β-glucosidase turned out to be 24.2%.
The matching figures for `O=C(N=c1scc(-c2ccc(F)cc2)n1-c1ccccc1F)c1ccccc1F` [6c, 2-Fluoro-N-(3-(2-fluorophenyl)-4-(4-fluorophenyl)thiazol-2(3H)-ylidene)benzamide]: 2.98 ± 0.04 µM and 36.3%.
`O=C(N=c1scc(-c2ccc(F)cc2)n1-c1ccccc1F)c1cccc(F)c1` [6d, 3-Fluoro-N-(3-(2-fluorophenyl)-4-(4-fluorophenyl) Thiazol-2(3H)-ylidene)benzamide] registered a half-maximal inhibitory concentration (IC50) against α-glucosidase of 1.47 ± 0.05 µM. The “α-glucosidase inhibitory efficacy, folds stronger than acarbose” value at α-glucosidase (ratio of IC50 values versus acarbose) is on record as approximately 24 folds. In addition, in the experiment on β-glucosidase, the “β-glucosidase % age inhibition” value is 18.6%.
`COc1cc(C(=O)N=c2scc(-c3ccc(F)cc3)n2-c2ccc(F)cc2)cc(OC)c1OC` [6e, N-(3,4-Bis(4-fluorophenyl)thiazol-2(3H)-ylidene)-3,4,5-trimethoxybenzamide] returned an IC50 against α-glucosidase of 2.1 ± 0.06 µM. Besides, in the experiment with β-glucosidase, the “β-glucosidase % age inhibition” value amounted to 9.33%.
In turn, `O=C(N=c1scc(-c2ccc(F)cc2)n1-c1ccc(F)c(Cl)c1)c1ccc(F)cc1` [6g, N-(3-(3-Chloro-4-fluorophenyl)-4-(4-fluorophenyl)thiazol-2(3H)-ylidene)-4-fluorobenzamide] returned a half-inhibitory concentration (IC50) against α-glucosidase of 3.16 ± 0.15 µM. Moreover, the “β-glucosidase % age inhibition” value in the experiment on β-glucosidase worked out at 20.1%.
Compound `O=C(N=c1scc(-c2ccc(F)cc2)n1-c1ccc(F)cc1)c1ccccc1Cl` [6h, N-(3,4-Bis(4-fluorophenyl) Thiazol-2(3H)-ylidene)-2-chlorobenzamide] gave an IC50 against α-glucosidase of 4.33 ± 0.19 µM. Further, the “β-glucosidase % age inhibition” value in the experiment on β-glucosidase was 17.5%.
At α-glucosidase, `COc1cc(C(=O)N=c2scc(-c3ccc(F)cc3)n2-c2cccc(F)c2)cc(OC)c1OC` [6i, N-(3-(3-Fluorophenyl)-4-(4-fluorophenyl)thiazol-2(3H)-ylidene)-3,4,5-trimethoxybenzamide] gave a half-inhibitory concentration (IC50) of 8.31 ± 0.13 µM. Besides, in the experiment on β-glucosidase, the “β-glucosidase % age inhibition” value was 15.4%.
With `O=C(N=c1scc(-c2ccc(F)cc2)n1-c1ccc(F)c(Cl)c1)c1ccccc1F` [6j, N-(3-(3-Chloro-4-fluorophenyl)-4-(4-fluorophenyl)thiazol-2(3H)-ylidene)-2-fluorobenzamide], the IC50 against α-glucosidase was determined as 12.5 ± 0.22 µM. Further, in the experiment with β-glucosidase, the “β-glucosidase % age inhibition” value was 12.8%.
For `C[C@H]1O[C@H](O[C@H]2[C@H](O)[C@@H](O)[C@@H](O[C@H]3[C@H](O)[C@@H](O)C(O)O[C@@H]3CO)O[C@@H]2CO)[C@H](O)[C@@H](O)[C@@H]1N[C@H]1C=C(CO)[C@@H](O)[C@H](O)[C@H]1O` (some centres unmarked) [acarbose, reference compound], in the experiment on β-glucosidase, the “β-glucosidase % age inhibition” value came to 63.7%.

The values are drawn from publication PMC10993276 (ACS Omega, 2024).
